From article PMC10901292 (European journal of medicinal chemistry, 2024)
One block for each compound: values may come before it.

Experiments:
EZH2 [1] = target: T1, EZH2 (Homo sapiens, UniProt Q15910); assay: Western blot of EZH2 protein level in EOL-1 cells; assay type: cell-based; conditions: for EZH2 degradation (EZH2 protein level): 24 h treatment
Target sequence in this assay (Q15910 whole entry): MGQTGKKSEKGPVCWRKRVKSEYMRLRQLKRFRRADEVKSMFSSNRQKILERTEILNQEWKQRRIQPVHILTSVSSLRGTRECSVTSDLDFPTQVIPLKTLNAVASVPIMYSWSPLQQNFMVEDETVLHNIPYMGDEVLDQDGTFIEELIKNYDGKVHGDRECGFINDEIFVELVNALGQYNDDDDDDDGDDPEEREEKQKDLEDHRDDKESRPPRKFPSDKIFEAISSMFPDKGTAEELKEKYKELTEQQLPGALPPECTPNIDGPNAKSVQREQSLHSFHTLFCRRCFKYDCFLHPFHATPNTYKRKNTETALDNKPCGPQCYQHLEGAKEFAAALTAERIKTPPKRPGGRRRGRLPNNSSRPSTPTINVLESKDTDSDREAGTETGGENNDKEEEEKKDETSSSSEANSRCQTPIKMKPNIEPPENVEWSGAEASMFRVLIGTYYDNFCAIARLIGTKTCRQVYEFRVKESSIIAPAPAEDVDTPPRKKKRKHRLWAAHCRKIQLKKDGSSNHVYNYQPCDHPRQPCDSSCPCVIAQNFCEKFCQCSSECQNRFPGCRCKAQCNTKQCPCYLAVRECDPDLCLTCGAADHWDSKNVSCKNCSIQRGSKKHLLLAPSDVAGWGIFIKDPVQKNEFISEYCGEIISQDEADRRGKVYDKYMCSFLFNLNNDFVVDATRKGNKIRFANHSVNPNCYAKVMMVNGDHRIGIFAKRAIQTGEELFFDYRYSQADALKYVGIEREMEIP
Target sequence in this assay (O75530 2-441 partner limits assumed): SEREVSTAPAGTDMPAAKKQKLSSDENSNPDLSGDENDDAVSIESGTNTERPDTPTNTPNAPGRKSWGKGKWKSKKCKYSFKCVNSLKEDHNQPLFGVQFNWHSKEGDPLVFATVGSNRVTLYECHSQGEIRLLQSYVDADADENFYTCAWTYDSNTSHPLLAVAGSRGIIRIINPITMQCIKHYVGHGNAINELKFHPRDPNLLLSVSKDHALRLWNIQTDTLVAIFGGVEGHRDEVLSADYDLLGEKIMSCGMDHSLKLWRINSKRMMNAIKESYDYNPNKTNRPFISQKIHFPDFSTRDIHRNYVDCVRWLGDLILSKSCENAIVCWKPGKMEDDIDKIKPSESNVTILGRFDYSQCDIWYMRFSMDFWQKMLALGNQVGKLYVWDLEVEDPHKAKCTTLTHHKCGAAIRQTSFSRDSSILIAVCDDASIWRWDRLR
Target sequence in this assay (Q15022 whole entry partner): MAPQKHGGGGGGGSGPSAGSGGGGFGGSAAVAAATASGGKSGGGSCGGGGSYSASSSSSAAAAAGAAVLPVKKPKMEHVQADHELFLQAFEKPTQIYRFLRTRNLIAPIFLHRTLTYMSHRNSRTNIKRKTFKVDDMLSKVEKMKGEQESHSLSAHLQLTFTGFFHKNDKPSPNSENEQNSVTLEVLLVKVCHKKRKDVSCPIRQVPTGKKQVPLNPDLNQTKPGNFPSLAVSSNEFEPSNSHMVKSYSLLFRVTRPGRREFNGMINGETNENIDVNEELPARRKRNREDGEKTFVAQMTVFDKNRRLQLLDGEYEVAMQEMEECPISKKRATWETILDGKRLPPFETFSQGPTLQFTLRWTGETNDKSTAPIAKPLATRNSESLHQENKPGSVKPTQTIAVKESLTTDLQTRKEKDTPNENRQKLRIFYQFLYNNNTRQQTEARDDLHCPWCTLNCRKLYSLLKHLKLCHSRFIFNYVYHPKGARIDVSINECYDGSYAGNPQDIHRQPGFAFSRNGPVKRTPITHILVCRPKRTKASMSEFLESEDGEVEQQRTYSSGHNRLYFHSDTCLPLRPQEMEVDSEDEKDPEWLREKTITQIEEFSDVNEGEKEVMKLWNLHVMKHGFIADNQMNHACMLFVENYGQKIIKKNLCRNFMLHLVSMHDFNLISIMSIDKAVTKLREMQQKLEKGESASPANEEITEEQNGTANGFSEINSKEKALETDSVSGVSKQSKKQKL

BT549 cells = assay: Cell viability WST-8; assay type: cell-based
MDA-MB-468 cells = assay: Cell viability WST-8; assay type: cell-based
H3K27me3 = assay: Western blot of H3K27me3 mark in EOL-1 cells; assay type: cell-based; conditions: 24 h treatment (Fig. 4A)
EED = assay: Western blot of EED in EOL-1 cells; assay type: cell-based; conditions: 24 h treatment (Fig. 4B)
EZH1 [2] = target: T2, EZH1 (Homo sapiens, UniProt Q92800); assay: Western blot of EZH1 degradation; assay type: cell-based; conditions: Fig. S3
Target sequence in this assay (Q92800 whole entry): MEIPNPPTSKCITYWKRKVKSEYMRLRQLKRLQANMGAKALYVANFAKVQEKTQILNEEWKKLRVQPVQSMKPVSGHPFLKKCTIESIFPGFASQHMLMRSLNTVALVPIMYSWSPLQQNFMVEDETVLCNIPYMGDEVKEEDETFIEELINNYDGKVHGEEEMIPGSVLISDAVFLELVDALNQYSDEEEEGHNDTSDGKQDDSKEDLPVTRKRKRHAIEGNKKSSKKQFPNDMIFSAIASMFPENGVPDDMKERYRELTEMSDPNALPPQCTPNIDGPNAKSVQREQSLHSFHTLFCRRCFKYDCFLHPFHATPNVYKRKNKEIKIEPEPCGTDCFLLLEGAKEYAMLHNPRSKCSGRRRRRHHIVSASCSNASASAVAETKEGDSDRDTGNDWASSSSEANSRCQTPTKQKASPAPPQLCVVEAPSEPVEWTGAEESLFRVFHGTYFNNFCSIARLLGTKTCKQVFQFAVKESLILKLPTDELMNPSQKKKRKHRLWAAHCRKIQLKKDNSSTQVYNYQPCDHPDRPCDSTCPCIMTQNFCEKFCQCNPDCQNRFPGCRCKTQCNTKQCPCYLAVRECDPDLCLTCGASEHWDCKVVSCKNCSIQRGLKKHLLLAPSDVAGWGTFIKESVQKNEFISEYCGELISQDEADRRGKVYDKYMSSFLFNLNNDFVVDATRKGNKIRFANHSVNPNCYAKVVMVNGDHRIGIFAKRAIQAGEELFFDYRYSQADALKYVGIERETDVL
Target sequence in this assay (O75530 2-441 partner limits assumed): as the sequence (O75530 2-441 partner limits assumed) above
Target sequence in this assay (Q15022 whole entry partner): as the sequence (Q15022 whole entry partner) above

[3] = tested on: panel of 20 protein methyltransferases; assay: Radioactive methyltransferase selectivity panel; assay type: biochemical; conditions: 10 μM, two replicates
EZH2 [4] = target: T1, EZH2; assay: EZH2 methyltransferase inhibition assay; assay type: biochemical; conditions: Fig. S2A
EZH1 [5] = target: T2, EZH1; assay: EZH1 methyltransferase inhibition assay; assay type: biochemical; conditions: Fig. S2B
EOL-1 cells = assay: Cell viability WST-8; assay type: cell-based
MV4; 11 cells = assay: Cell viability WST-8; assay type: cell-based
K562 cells = assay: Cell viability assay, K562; assay type: cell-based; conditions: K562 cells (insensitive to EZH2 KO), Fig. S4
EZH2 [6] = target: T1, EZH2; assay: Western blot of EZH2 protein level in MV4; assay type: cell-based; conditions: 11 cells, 24 h treatment, all tested concentrations (Fig. 8A, 8C)
Target sequence in this assay (Q15910 whole entry): as the sequence (Q15910 whole entry) above
Target sequence in this assay (O75530 2-441 partner limits assumed): as the sequence (O75530 2-441 partner limits assumed) above
Target sequence in this assay (Q15022 whole entry partner): as the sequence (Q15022 whole entry partner) above

EZH2 [7] = target: T1, EZH2; assay: Western blot of EZH2 protein level in RS4; assay type: cell-based; conditions: 11 cells, 24 h treatment, 0.1 and 0.3 μM
Target sequence in this assay (Q15910 whole entry): as the sequence (Q15910 whole entry) above
Target sequence in this assay (O75530 2-441 partner limits assumed): as the sequence (O75530 2-441 partner limits assumed) above
Target sequence in this assay (Q15022 whole entry partner): as the sequence (Q15022 whole entry partner) above

EZH2 [8] = target: T1, EZH2; assay: Western blot of EZH2 protein level in BT549 cells; assay type: cell-based; conditions: 48 h treatment
Target sequence in this assay (Q15910 whole entry): as the sequence (Q15910 whole entry) above
Target sequence in this assay (O75530 2-441 partner limits assumed): as the sequence (O75530 2-441 partner limits assumed) above
Target sequence in this assay (Q15022 whole entry partner): as the sequence (Q15022 whole entry partner) above

EZH2 [9] = target: T1, EZH2; assay: Western blot of EZH2 protein level in MDA-MB-468 cells; assay type: cell-based; conditions: 48 h treatment
Target sequence in this assay (Q15910 whole entry): as the sequence (Q15910 whole entry) above
Target sequence in this assay (O75530 2-441 partner limits assumed): as the sequence (O75530 2-441 partner limits assumed) above
Target sequence in this assay (Q15022 whole entry partner): as the sequence (Q15022 whole entry partner) above

BT549 in vitro spheroids = assay: Bio-Assembler 3D in vitro spheroid TNBC model; assay type: cell-based; conditions: 5 d treatment
[10] = Mouse pharmacokinetic study
[11] = Tolerability observed in the mouse PK study; conditions: mice, single IP injection 50 mg/kg

EZH2 degradation (EZH2 protein level) (EZH2 [1]; SAR study (Fig. 3)): partial degradation
Compound: CCN(c1cc(-c2ccc(CN3CCN(CCC(=O)NCCCCCCCC(=O)N[C@H](C(=O)N4C[C@H](O)C[C@H]4C(=O)NCc4ccc(-c5scnc5C)cc4)C(C)(C)C)CC3)cc2)cc(C(=O)NCc2c(C)cc(C)[nH]c2=O)c1C)C1CCOCC1 [Compound 5, (2S,4R)-1-((S)-2-(8-(3-(4-((3’-(((4,6-dimethyl-2-oxo-1,2-dihydropyridin-3-yl)methyl)carbamoyl)-5’-(ethyl(tetrahydro-2H-pyran-4-yl)amino)-4′-methyl-[1,1′-biphenyl]-4-yl)methyl)piperazin-1-yl)propanamido)octanamido)-3,3-dimethylbutanoyl)-4-hydroxy-N-(4-(4-methylthiazol-5-yl)benzyl)pyrrolidine-2-carboxamide]

EZH2 degradation (EZH2 protein level) (EZH2 [1]; SAR study (Fig. 3)): partial degradation
Compound: CCN(c1cc(-c2ccc(CN3CCN(CCC(=O)NCCCCCCCCC(=O)N[C@H](C(=O)N4C[C@H](O)C[C@H]4C(=O)NCc4ccc(-c5scnc5C)cc4)C(C)(C)C)CC3)cc2)cc(C(=O)NCc2c(C)cc(C)[nH]c2=O)c1C)C1CCOCC1 [Compound 6, (2S,4R)-1-((S)-2-(9-(3-(4-((3’-(((4,6-dimethyl-2-oxo-1,2-dihydropyridin-3-yl)methyl)carbamoyl)-5’-(ethyl(tetrahydro-2H-pyran-4-yl)amino)-4′-methyl-[1,1′-biphenyl]-4-yl)methyl)piperazin-1-yl)propanamido)nonanamido)-3,3-dimethylbutanoyl)-4-hydroxy-N-(4-(4-methylthiazol-5-yl)benzyl)pyrrolidine-2-carboxamide]

EZH2 degradation (EZH2 protein level) (EZH2 [1]; 1 μM (Fig. 3)): less profoundly
Compound: CCN(c1cc(-c2ccc(CN3CCN(CCC(=O)NCCCCCCCCCC(=O)N[C@H](C(=O)N4C[C@H](O)C[C@H]4C(=O)NCc4ccc(-c5scnc5C)cc4)C(C)(C)C)CC3)cc2)cc(C(=O)NCc2c(C)cc(C)[nH]c2=O)c1C)C1CCOCC1 [Compound 7, (2S,4R)-1-((S)-2-(10-(3-(4-((3’-(((4,6-dimethyl-2-oxo-1,2-dihydropyridin-3-yl)methyl)carbamoyl)-5’-(ethyl(tetrahydro-2H-pyran-4-yl)amino)-4′-methyl-[1,1′-biphenyl]-4-yl)methyl)piperazin-1-yl)propanamido)decanamido)-3,3-dimethylbutanoyl)-4-hydroxy-N-(4-(4-methylthiazol-5-yl)benzyl)pyrrolidine-2-carboxamide]
EZH2 degradation (EZH2 protein level) (EZH2 [1]; 0.1 μM (Fig. 3)): reduced the EZH2 protein level completely

Compound: CCN(c1cc(-c2ccc(CN3CCOCC3)cc2)cc(C(=O)NCc2c(C)cc(C)[nH]c2=O)c1C)C1CCOCC1 [EPZ-6438, Tazemetostat]
effect on cell growth (BT549 cells): no effect
effect on cell growth (MDA-MB-468 cells): no effect

time at which EZH2 degradation started (EZH2 [1]; 300 nM): 8 h
time to maximum EZH2 degradation (EZH2 [1]; 300 nM): ≤ 24 h
EZH2 degradation (EZH2 [1]; 24 h, 0.1 and 0.3 μM, comparison of five degraders (Fig. 7A)): complete degradation
EZH2 degradation (EZH2 [1]; 24 h treatment at the indicated concentration (Fig. 4A, Fig. 6A)): effectively induced EZH2 degradation
EZH2 degradation (EZH2 protein level) (EZH2 [1]; 0.1 μM (Fig. 3)): complete EZH2 degradation
EZH2 degradation (EZH2 protein level) (EZH2 [1]; 1 μM (Fig. 3)): complete EZH2 degradation
EZH1 degradation (EZH1 [2]): does not degrade
inhibition of any of the 20 methyltransferases [3]: ≤ 50%
inhibition of the enzymatic activity of EZH2 (EZH2 [4]): inhibits
inhibition of the enzymatic activity of EZH1 (EZH1 [5]): inhibits
fold more potent than U3i (cell growth IC50) (MV4; 11 cells): over 2 fold
EZH2 degradation (EZH2 [6]): near-complete degradation
EZH2 degradation (EZH2 [7]): induced EZH2 degradation
EZH2 degradation (EZH2 [8]): potent EZH2 degradation
EZH2 degradation (EZH2 [9]): potent EZH2 degradation
time at which Cmax was observed ([10]; male Swiss albino mice, single IP injection 50 mg/kg, HCl form): 4 h
concentration at 9 h ([10]; male, Swiss Albino, mouse, plasma, ip, 50 mg/kg): > 1000 nM
Compound: CCN(c1cc(-c2ccc(CN3CCN(CCC(=O)NCCCCCCCCCCC(=O)N[C@H](C(=O)N4C[C@H](O)C[C@H]4C(=O)NCc4ccc(-c5scnc5C)cc4)C(C)(C)C)CC3)cc2)cc(C(=O)NCc2c(C)cc(C)[nH]c2=O)c1C)C1CCOCC1 [MS8847, (2S,4R)-1-((S)-2-(11-(3-(4-((3’-(((4,6-dimethyl-2-oxo-1,2-dihydropyridin-3-yl)methyl)carbamoyl)-5’-(ethyl(tetrahydro-2H-pyran-4-yl)amino)-4′-methyl-[1,1′-biphenyl]-4-yl)methyl)piperazin-1-yl)propanamido)undecanamido)-3,3-dimethylbutanoyl)-4-hydroxy-N-(4-(4-methylthiazol-5-yl)benzyl)pyrrolidine-2-carboxamide]
reduction of the H3K27me3 mark (H3K27me3): reduced the H3K27me3 mark
EED degradation (EED): potently degraded
fold more potent than MS8815 (anti-proliferative IC50) (EOL-1 cells): more than 3 fold
cell growth inhibition (K562 cells): did not inhibit cell growth
cell viability of BT549 cells in spheroids (Cell Titer Glo 3D) (BT549 in vitro spheroids): significantly reduced
size of BT549 in vitro spheroids (BT549 in vitro spheroids; compared to DMSO-treated control tumors): significantly reduced
clinical signs of toxicity [11]: did not exhibit obvious clinical signs of toxicity

EZH2 degradation (EZH2 [6]): did not induce EZH2 degradation
Compound: CCN(c1cc(-c2ccc(CN3CCN(CCC(=O)NCCCCCCCCCCC(=O)N[C@H](C(=O)N4C[C@H](O)C[C@H]4C(=O)NCc4ccc(-c5scnc5C)cc4)C(C)(C)C)CC3)cc2)cc(C(=O)N(C)Cc2c(C)cc(C)n(C)c2=O)c1C)C1CCOCC1 [MS8847N1, (2S,4R)-1-((S)-2-(11-(3-(4-((3’-(ethyl(tetrahydro-2H-pyran-4-yl)amino)-4′-methyl-5’-(methyl((1,4,6-trimethyl-2-oxo-1,2-dihydropyridin-3-yl)methyl)carbamoyl)-[1,1′-biphenyl]-4-yl)methyl)piperazin-1-yl)propanamido)undecanamido)-3,3-dimethylbutanoyl)-4-hydroxy-N-(4-(4-methylthiazol-5-yl)benzyl)pyrrolidine-2-carboxamide]

Compound: (2R,4S)-1-((S)-2-(11-(3-(4-((3’-(((4,6-dimethyl-2-oxo-1,2-dihydropyridin-3-yl)methyl)carbamoyl)-5’-(ethyl(tetrahydro-2H-pyran-4-yl)amino)-4′-methyl-[1,1′-biphenyl]-4-yl)methyl)piperazin-1-yl)propanamido)undecanamido)-3,3-dimethylbutanoyl)-4-hydroxy-N-(4-(4-methylthiazol-5-yl)benzyl)pyrrolidine-2-carboxamide [MS8847N2]
EZH2 degradation (EZH2 [6]): did not induce EZH2 degradation
